Key:
[1] = biological target: T1, Serine/threonine-protein kinase Chk1 (Homo sapiens) (UniProt O14757); assay: Inhibition of CHK1 phosphorylation at S317 residue in human FOLFOX-resistant HCT116 cells after 24 hrs by Western blot analysis
T1 sequence (whole entry): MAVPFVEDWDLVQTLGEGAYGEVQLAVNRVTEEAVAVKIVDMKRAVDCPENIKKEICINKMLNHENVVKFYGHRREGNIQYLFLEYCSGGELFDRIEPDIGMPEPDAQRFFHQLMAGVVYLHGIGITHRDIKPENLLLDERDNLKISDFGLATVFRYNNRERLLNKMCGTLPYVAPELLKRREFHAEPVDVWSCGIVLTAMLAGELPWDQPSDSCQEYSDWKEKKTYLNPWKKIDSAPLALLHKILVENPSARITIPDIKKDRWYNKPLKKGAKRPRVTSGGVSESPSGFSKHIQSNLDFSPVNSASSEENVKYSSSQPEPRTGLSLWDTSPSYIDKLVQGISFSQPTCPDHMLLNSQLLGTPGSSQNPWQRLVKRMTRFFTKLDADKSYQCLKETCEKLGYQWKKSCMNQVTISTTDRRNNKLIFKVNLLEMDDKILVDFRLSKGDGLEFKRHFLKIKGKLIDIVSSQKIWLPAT

[2] = biological target: T1, Serine/threonine-protein kinase Chk1 (Homo sapiens); assay: Inhibition of CHK1 phosphorylation at S296 residue in human FOLFOX-resistant HCT116 cells after 24 hrs by Western blot analysis
[3] = biological target: Calcium/calmodulin-dependent protein kinase type 1B (Homo sapiens) (UniProt Q6P2M8); assay: Inhibition of human CAMK1B assessed as residual activity at 1 uM using KKALRRQETVDAL as substrate by [gamma-33P]-ATP assay relative to control
[4] = biological target: CDC7/DBF4 (Cell division cycle 7-related protein kinase/Activator of S phase kinase) (Homo sapiens) (UniProt Q9UBU7+O00311); assay: Inhibition of human CDC7/DBF4 assessed as residual activity at 1 uM using KTFCGTPEYLAPEVRREPRILSEEEQEMFRDFDYIADWC as substrate by [gamma-33P]-ATP assay relative to control; type: protein-complex assay
[5] = biological target: Cyclin-dependent kinase 14/Cyclin-Y (Homo sapiens) (UniProt O94921+Q8ND76); assay: Inhibition of human CDK14/cyclin-Y assessed as residual activity at 1 uM using RB protein as substrate by [gamma-33P]-ATP assay relative to control; type: protein-complex assay
[6] = biological target: CDK2/Cyclin O (Homo sapiens) (UniProt P24941+P22674); assay: Inhibition of human CDK2/cyclin-O assessed as residual activity at 1 uM using histone H1 as substrate by [gamma-33P]-ATP assay relative to control; type: protein-complex assay
[7] = biological target: CDK9/Cyclin-T2 (Homo sapiens) (UniProt P50750+O60583); assay: Inhibition of human CDK9/cyclin-T2 assessed as residual activity at 1 uM using KTFCGTPEYLAPEVRREPRILSEEEQEMFRDFDYIADWC as substrate by [gamma-33P]-ATP assay relative to control; type: protein-complex assay
[8] = biological target: Casein kinase II subunit alpha' (Homo sapiens) (UniProt P19784); assay: Inhibition of human CK2A2 assessed as residual activity at 1 uM using RRRDDDSDDD as substrate by [gamma-33P]-ATP assay relative to control
[9] = biological target: Dual specificity protein kinase CLK3 (Homo sapiens) (UniProt P49761); assay: Inhibition of human CLK3 assessed as residual activity at 1 uM using MBP as substrate by [gamma-33P]-ATP assay relative to control
[10] = biological target: Dual specificity protein kinase CLK4 (Homo sapiens) (UniProt Q9HAZ1); assay: Inhibition of human CLK4 assessed as residual activity at 1 uM using MBP as substrate by [gamma-33P]-ATP assay relative to control
[11] = biological target: Serine/threonine-protein kinase DCLK2 (Homo sapiens) (UniProt Q8N568); assay: Inhibition of human DCAMKL2 assessed as residual activity at 1 uM using KKLNRTLSFAEPG as substrate by [gamma-33P]-ATP assay relative to control
[12] = biological target: Mitogen-activated protein kinase kinase kinase 12 (Homo sapiens) (UniProt Q12852); assay: Inhibition of human DLK assessed as residual activity at 1 uM using MBP as substrate by [gamma-33P]-ATP assay relative to control
[13] = biological target: Rhodopsin kinase GRK1 (Homo sapiens) (UniProt Q15835); assay: Inhibition of human GRK1 assessed as residual activity at 1 uM using casein as substrate by [gamma-33P]-ATP assay relative to control
[14] = biological target: Interleukin-1 receptor-associated kinase 4 (Homo sapiens) (UniProt Q9NWZ3); assay: Inhibition of human IRAK4 assessed as residual activity at 1 uM using MBP as substrate by [gamma-33P]-ATP assay relative to control
[15] = biological target: Serine/threonine-protein kinase STK11 (Homo sapiens) (UniProt Q15831); assay: Inhibition of human LKB1 assessed as residual activity at 1 uM using LSNLYHQGKFLQTFCGSPLYRRR as substrate by [gamma-33P]-ATP assay relative to control
[16] = biological target: Mitogen-activated protein kinase kinase kinase 3 (Homo sapiens) (UniProt Q99759); assay: Inhibition of human MEKK3 assessed as residual activity at 1 uM using MBP as substrate by [gamma-33P]-ATP assay relative to control
[17] = biological target: Myosin light chain kinase 2, skeletal/cardiac muscle (Homo sapiens) (UniProt Q9H1R3); assay: Inhibition of human MLCK2 assessed as residual activity at 1 uM using KKLNRTLSFAEPG as substrate by [gamma-33P]-ATP assay relative to control
[18] = biological target: Serine/threonine-protein kinase 26 (Homo sapiens) (UniProt Q9P289); assay: Inhibition of human MST4 assessed as residual activity at 1 uM using MBP as substrate by [gamma-33P]-ATP assay relative to control
[19] = biological target: Serine/threonine-protein kinase Nek3 (Homo sapiens) (UniProt P51956); assay: Inhibition of human NEK3 assessed as residual activity at 1 uM using MBP as substrate by [gamma-33P]-ATP assay relative to control
[20] = biological target: Proto-oncogene tyrosine-protein kinase ROS (Homo sapiens) (UniProt P08922); assay: Inhibition of human ROS assessed as residual activity at 1 uM using KKKSPGEYVNIEFG as substrate by [gamma-33P]-ATP assay relative to control
[21] = biological target: Serine/threonine-protein kinase 33 (Homo sapiens) (UniProt Q9BYT3); assay: Inhibition of human STK33 assessed as residual activity at 1 uM using MBP as substrate by [gamma-33P]-ATP assay relative to control
[22] = biological target: Serine/threonine-protein kinase TAO3 (Homo sapiens) (UniProt Q9H2K8); assay: Inhibition of human TAOK3 assessed as residual activity at 1 uM using MBP as substrate by [gamma-33P]-ATP assay relative to control
[23] = biological target: Serine/threonine-protein kinase WNK3 (Homo sapiens, UniProt Q9BYP7); assay: Inhibition of human WNK3 assessed as residual activity at 1 uM using MBP as substrate by [gamma-33P]-ATP assay relative to control
Chain of Serine/threonine-protein kinase WNK3 (Q9BYP7 whole entry): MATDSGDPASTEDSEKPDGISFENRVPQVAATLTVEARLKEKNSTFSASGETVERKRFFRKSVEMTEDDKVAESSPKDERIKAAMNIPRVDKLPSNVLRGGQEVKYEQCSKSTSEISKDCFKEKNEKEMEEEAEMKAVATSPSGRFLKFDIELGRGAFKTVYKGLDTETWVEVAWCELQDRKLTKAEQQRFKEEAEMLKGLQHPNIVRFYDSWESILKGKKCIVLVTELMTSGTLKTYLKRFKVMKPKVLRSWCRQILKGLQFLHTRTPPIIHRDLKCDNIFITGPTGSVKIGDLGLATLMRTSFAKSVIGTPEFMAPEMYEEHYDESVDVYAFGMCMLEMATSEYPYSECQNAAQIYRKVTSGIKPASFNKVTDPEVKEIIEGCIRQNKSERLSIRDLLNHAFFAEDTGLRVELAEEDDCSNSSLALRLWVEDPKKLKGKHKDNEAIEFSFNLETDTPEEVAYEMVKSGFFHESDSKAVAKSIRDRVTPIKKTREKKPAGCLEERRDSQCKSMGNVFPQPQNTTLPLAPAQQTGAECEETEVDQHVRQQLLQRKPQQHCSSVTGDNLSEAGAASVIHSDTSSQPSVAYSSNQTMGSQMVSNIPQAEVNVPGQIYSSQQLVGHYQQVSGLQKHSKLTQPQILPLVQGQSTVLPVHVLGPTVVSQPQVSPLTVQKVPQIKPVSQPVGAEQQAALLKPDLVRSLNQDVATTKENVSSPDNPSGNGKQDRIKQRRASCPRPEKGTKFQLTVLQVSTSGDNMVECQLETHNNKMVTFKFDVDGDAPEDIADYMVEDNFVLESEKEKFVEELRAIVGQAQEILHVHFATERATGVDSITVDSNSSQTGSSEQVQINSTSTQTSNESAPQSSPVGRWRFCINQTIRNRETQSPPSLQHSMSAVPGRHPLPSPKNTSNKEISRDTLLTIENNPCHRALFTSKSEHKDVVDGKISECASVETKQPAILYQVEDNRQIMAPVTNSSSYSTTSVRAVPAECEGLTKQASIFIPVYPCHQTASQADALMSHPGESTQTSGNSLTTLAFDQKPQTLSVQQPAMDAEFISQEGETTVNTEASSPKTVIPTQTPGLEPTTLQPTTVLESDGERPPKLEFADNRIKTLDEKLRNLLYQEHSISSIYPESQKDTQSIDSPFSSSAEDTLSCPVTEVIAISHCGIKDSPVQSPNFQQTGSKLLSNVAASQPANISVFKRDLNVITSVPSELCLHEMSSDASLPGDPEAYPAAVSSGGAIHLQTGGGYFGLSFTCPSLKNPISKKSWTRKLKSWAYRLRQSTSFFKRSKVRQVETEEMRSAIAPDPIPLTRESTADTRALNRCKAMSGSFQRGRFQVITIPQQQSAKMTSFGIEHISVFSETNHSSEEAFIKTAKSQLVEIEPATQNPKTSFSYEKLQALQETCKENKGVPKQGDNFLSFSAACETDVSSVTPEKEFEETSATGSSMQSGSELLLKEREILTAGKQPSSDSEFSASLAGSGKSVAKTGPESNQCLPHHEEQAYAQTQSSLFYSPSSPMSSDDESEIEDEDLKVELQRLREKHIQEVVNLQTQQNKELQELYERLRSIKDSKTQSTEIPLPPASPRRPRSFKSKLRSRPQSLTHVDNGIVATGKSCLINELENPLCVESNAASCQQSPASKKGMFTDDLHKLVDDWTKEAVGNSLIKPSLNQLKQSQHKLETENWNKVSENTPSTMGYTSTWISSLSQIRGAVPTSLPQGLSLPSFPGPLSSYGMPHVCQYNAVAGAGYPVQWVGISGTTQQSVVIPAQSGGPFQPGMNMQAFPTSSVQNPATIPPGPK

Chain of Serine/threonine-protein kinase 33 (Homo sapiens) (Q9BYT3 whole entry, looked up): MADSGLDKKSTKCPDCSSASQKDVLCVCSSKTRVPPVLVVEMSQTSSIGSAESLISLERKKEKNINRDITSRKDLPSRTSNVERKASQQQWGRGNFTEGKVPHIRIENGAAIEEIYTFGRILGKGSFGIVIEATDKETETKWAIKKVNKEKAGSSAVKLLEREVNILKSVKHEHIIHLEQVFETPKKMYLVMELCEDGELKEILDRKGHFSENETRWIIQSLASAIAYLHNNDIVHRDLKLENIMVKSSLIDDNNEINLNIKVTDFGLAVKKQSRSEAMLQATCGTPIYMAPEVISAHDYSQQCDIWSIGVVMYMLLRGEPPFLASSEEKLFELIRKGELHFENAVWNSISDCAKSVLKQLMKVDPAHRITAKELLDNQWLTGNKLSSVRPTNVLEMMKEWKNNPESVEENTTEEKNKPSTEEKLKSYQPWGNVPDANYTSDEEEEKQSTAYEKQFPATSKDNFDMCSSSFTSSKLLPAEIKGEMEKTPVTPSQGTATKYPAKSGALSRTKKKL
Chain of Myosin light chain kinase 2, skeletal/cardiac muscle (Homo sapiens) (Q9H1R3 whole entry): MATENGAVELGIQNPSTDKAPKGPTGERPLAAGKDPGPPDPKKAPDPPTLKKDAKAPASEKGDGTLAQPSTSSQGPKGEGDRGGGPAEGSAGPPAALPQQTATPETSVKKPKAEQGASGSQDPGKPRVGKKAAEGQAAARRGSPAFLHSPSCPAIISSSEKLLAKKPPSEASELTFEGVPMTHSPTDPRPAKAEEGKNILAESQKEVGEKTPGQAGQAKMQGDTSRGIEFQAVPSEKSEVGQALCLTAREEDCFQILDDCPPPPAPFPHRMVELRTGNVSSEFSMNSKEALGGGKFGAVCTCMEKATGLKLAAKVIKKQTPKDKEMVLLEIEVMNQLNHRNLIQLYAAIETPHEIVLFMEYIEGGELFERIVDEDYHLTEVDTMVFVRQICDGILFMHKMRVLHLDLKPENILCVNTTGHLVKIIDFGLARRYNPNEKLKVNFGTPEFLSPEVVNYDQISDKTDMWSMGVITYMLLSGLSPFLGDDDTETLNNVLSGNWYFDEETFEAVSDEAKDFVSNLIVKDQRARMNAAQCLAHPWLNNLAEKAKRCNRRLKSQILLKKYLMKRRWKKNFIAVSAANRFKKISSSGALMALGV
Chain of Mitogen-activated protein kinase kinase kinase 12 (Homo sapiens) (Q12852 whole entry): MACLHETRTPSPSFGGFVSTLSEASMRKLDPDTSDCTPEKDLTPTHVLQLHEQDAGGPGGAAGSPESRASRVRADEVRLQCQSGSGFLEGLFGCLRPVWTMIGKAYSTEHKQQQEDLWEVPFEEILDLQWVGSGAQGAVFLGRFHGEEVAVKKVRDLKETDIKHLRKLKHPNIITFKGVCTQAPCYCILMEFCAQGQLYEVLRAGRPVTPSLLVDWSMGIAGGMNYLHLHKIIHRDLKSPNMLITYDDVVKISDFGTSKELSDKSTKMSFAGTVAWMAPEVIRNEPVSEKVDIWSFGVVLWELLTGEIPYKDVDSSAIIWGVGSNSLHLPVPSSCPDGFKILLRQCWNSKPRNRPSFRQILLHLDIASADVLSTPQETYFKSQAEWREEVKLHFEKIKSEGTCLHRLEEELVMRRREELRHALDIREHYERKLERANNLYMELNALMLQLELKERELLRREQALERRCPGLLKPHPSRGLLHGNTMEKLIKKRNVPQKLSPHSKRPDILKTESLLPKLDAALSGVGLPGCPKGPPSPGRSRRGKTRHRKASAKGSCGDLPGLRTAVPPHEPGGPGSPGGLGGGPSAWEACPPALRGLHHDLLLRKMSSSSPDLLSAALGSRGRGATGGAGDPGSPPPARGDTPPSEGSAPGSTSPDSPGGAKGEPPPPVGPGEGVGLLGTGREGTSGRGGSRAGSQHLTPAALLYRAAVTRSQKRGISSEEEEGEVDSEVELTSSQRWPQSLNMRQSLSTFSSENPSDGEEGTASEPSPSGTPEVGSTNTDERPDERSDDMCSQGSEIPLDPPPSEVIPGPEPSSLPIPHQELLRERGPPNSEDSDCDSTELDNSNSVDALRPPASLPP
Chain of Calcium/calmodulin-dependent protein kinase type 1B (Homo sapiens) (Q6P2M8 whole entry): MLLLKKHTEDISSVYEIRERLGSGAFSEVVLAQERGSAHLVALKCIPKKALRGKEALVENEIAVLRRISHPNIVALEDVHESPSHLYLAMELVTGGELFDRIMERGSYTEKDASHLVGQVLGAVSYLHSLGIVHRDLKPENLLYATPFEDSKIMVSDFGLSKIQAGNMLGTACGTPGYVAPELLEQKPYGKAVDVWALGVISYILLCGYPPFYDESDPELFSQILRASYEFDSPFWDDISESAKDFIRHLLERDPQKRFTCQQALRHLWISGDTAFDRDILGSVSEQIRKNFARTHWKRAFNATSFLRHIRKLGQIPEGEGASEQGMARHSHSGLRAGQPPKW
Chain of Rhodopsin kinase GRK1 (Homo sapiens) (Q15835 whole entry): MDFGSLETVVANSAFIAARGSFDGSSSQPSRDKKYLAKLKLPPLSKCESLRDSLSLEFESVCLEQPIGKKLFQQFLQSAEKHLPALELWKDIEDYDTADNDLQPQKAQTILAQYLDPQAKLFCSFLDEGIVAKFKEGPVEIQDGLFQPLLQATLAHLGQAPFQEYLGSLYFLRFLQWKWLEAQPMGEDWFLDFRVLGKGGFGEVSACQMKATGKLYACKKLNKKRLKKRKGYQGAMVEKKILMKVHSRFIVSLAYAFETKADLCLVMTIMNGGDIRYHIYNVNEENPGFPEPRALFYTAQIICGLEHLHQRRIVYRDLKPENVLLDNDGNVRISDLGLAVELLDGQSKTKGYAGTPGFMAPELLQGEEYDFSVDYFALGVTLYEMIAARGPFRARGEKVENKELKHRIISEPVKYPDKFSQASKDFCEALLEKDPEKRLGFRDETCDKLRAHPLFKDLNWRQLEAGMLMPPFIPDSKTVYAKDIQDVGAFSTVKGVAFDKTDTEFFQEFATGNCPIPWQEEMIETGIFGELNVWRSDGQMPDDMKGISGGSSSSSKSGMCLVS
Chain of Casein kinase II subunit alpha' (Homo sapiens) (P19784 whole entry, looked up): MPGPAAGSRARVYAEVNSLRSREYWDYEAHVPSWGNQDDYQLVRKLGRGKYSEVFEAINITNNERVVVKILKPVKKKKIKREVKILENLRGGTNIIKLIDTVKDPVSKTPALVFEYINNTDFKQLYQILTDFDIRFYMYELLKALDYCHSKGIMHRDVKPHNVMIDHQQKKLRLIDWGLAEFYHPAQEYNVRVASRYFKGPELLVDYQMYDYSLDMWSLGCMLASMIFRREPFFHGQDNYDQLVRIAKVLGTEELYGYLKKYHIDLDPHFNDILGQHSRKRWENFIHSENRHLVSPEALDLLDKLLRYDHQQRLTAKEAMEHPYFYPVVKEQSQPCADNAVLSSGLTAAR

SMILES	inhibition [1]	inhibition [2]	Activity [3] [%]	Activity [4] [%]	Activity [5] [%]	Activity [6] [%]	Activity [7] [%]	Activity [8] [%]	Activity [9] [%]	Activity [10] [%]	Activity [11] [%]	Activity [12] [%]	Activity [13] [%]	Activity [14] [%]	Activity [15] [%]	Activity [16] [%]	Activity [17] [%]	Activity [18] [%]	Activity [19] [%]	Activity [20] [%]	other results
C(=C\c1ccccc1)/C[N+]12CN3CN(CN(C3)C1)C2	Dose-dependent effect	Dose-dependent effect	80.5 to 87.2	94 to 94.4	95.2 to 96.5	94.1 to 96.4	87 to 94.5	122	96.2 to 96.9	93.1 to 93.2	89.2 to 89.7	88.4 to 93.3	88.5 to 88.9	92.1 to 96.8	89.2 to 92.2	117 to 119	91.7 to 94.8	90.7 to 92.2	88.4 to 92.3	94.4 to 94.8	Activity [21]: 94.9 to 95.4%; Activity [22]: 92.8 to 93.1%; Activity [23]: 92.3 to 93%
ClC/C=C/C[N+]12CN3CN(CN(C3)C1)C2	Dose-dependent effect	Dose-dependent effect	87.8 to 88.7	93.8 to 95.8	96.5 to 97.3	96 to 96.3	95.7 to 97.6	117 to 118	92.6 to 95.8	86.9 to 91.8	92.3 to 92.9	71.9 to 74.8	88.2 to 88.7	91.5 to 92.7	92 to 94.8	118 to 123	93.7 to 95.3	83.3 to 87.1	86.9 to 92.5	94 to 95.2	Activity [21]: 86.5 to 88.4%; Activity [22]: 94.1 to 94.7%; Activity [23]: 90.2 to 91.3%
